Measured values from patent US10208089B2, “Modulation of complement activity” (priority 2014, dated 2019).
Read-outs that look alike come from different tables or passages of the source. Starred links: 1 amine or outer side, 2 acyl side, 3 side chain; linkers in the order of their positions; H or OH if unused. Positions of bridges follow the written chain, without caps; N, C: chain ends. Non-standard residues stand in square brackets, D forms with d. Residues, ends and D or L forms follow the SMILES beside them. Trp(7-aza) = N[C@@H](Cc1c[nH]c2ncccc12)C(=O)O; mXylylene = c1cc(C[*:1])cc(C[*:2])c1; pXylylene = c1cc(C[*:2])ccc1C[*:1]; Phg = N[C@H](C(=O)O)c1ccccc1; NMeS = CN[C@@H](CO)C(=O)O; Nva = CCC[C@H](N)C(=O)O

Columns and labels:
C5 [1] = target: T1, C5 (Homo sapiens, UniProt P01031); experiment: Human hemolysis assay (RBC lysis assay using complete human sera); type: cell-based; parameters: with complete human sera (Complement Technology, Tyler Tex.) and polypeptides; tissue Complement Technology, Tyler Tex; host or cells: complete human serum; conditions: inhibition of lysis of antibody-sensitized sheep erythrocytes, complete human sera
C5 [2] = target: T1, C5; experiment: Competitive fluorescence polarization assay with probe R3076; type: binding; parameters: purchased Complement Technology, Tyler, Tex; conditions: for competition with labeled probe / affinity for C5 (in words): probe R3076 25 nM
Description: FP allows binding events to be measured in a homogenous solution.
Polarization was measured over time, until binding reached equilibrium. KD was determined using Graphpad Prism (using “Saturating Binding Curves, One Site—Specific Binding With Hill Slope” as the curve fit to determine KD).
10 μl of this working stock was then added to each well in the assay plate. The assay plate was incubated at room temperature, protected from light, for 20 minutes to allow binding to reach equilibrium.
Test articles listed in Table 7 were subsequently diluted in DMSO then assay buffer, comprising 10 2-fold dilutions and were then added to the assay plate in triplicate, rapidly. The assay plate was then incubated in the Paradigm (Molecular Devices, Sunnyvale, Calif.) plate reader for 60 minutes at 25° C.
After incubation for 60 minutes, the plate was read using the Paradigm FP protocol (Molecular Devices, Sunnyvale, Calif.) and raw polarization values were imported into Graphpad Prism.

[3] = Compound stability in human plasma; type: in vitro ADME
Description: Compounds were assayed for stability in human plasma under the following conditions. Human plasma was obtained from Bioreclamation (Westbury, N.Y.) and collected in sodium heparin. Plasma was adjusted to pH 7.4. DMSO stocks at 10 mM concentration were prepared for the test compounds. Aliquots of the DMSO solutions were dosed into 1 mL of plasma, which had been pre-warmed to 37° C., at a final test compound concentration of 10 μM. The vials were kept in a benchtop THERMOMIXER® (Eppendorf, Hauppauge, N.Y.) for the duration of the experiment. Aliquots (100 μL) were taken at each timepoint and added to a 96-well plate that had been pre-filled with 300 μL of an acetonitrile solution containing mixture of the internal standards (metoprolol, propranolol and warfarin each at 500 ng/mL). […] Aliquots of the supernatant were removed and analyzed by LC-HRAMS.

C5 [4] = target: T1, C5; experiment: Alternative human hemolysis assay using C5 depleted sera and purified human C5; type: cell-based; parameters: purchased Complement Technology, Tyler, Tex; conditions: antibody-sensitized sheep erythrocytes, 1.5% human C5 depleted sera and 0.5 nM purified human C5
rat C5 = target: T2, rat C5 (Rattus norvegicus, UniProt P08650); experiment: Ex vivo hemolysis assays in the rat study
T2 construct: from tissue; host or cells: plasma of dosed male rats

[5] = average of Exp 1 and Exp 2, read-out: Avg, nM IC50
[6] = average of Exp 1 and Exp 2, read-out: Avg, nM Ki
[7] = competition with probe R3076 25 nM, C5 50 nM, 60 min at 25° C., experiment 1, read-out: IC50 nM, Exp 1
[8] = competition with probe R3076 25 nM, C5 50 nM, 60 min at 25° C., experiment 1, read-out: Ki nM, Exp 1
[9] = competition with probe R3076 25 nM, C5 50 nM, 60 min at 25° C., experiment 2, read-out: IC50 nM, Exp 2
[10] = competition with probe R3076 25 nM, C5 50 nM, 60 min at 25° C., experiment 2, read-out: Ki nM, Exp 2

T1 sequence (P01031 19-1676): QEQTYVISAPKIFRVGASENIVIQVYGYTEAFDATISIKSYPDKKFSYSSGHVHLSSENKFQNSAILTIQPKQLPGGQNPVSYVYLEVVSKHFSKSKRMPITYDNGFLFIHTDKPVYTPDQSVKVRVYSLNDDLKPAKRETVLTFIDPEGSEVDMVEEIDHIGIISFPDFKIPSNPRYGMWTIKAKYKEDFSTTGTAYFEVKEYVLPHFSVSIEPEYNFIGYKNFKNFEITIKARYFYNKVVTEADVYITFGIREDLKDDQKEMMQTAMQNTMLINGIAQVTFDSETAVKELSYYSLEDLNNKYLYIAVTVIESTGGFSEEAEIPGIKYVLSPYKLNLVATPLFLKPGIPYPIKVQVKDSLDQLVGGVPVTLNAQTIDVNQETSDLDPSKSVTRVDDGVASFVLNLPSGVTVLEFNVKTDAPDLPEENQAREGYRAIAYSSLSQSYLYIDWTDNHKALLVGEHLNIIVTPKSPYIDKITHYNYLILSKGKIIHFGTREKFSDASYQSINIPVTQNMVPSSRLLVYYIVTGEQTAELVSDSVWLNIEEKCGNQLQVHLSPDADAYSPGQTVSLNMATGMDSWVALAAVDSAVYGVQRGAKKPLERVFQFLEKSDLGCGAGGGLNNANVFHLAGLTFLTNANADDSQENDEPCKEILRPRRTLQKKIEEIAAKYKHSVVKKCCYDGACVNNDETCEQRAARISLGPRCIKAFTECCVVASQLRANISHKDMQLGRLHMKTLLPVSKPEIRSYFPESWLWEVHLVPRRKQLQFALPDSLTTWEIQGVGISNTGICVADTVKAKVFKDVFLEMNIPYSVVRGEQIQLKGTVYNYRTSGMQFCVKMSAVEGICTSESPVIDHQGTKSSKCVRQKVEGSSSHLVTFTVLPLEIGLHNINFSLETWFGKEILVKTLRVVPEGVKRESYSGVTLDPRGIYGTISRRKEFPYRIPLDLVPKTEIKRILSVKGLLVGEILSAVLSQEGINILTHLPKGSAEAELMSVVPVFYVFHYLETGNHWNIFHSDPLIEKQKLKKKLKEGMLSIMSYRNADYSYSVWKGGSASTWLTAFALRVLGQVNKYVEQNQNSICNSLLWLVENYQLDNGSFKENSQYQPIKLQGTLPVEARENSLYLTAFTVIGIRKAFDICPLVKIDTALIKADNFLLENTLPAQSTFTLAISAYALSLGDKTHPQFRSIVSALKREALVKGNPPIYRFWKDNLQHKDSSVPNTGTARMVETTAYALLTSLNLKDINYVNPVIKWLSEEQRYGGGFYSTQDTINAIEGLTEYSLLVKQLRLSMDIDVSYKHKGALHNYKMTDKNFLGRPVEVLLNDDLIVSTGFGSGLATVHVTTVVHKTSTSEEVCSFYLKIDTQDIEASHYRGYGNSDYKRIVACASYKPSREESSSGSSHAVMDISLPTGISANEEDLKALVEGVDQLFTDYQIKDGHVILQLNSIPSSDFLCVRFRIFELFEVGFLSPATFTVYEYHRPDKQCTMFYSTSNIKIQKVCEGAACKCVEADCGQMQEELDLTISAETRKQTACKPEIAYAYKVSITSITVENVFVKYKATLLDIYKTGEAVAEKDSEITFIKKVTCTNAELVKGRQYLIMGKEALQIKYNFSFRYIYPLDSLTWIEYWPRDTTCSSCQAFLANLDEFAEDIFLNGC
T2 sequence (P08650 19-1681): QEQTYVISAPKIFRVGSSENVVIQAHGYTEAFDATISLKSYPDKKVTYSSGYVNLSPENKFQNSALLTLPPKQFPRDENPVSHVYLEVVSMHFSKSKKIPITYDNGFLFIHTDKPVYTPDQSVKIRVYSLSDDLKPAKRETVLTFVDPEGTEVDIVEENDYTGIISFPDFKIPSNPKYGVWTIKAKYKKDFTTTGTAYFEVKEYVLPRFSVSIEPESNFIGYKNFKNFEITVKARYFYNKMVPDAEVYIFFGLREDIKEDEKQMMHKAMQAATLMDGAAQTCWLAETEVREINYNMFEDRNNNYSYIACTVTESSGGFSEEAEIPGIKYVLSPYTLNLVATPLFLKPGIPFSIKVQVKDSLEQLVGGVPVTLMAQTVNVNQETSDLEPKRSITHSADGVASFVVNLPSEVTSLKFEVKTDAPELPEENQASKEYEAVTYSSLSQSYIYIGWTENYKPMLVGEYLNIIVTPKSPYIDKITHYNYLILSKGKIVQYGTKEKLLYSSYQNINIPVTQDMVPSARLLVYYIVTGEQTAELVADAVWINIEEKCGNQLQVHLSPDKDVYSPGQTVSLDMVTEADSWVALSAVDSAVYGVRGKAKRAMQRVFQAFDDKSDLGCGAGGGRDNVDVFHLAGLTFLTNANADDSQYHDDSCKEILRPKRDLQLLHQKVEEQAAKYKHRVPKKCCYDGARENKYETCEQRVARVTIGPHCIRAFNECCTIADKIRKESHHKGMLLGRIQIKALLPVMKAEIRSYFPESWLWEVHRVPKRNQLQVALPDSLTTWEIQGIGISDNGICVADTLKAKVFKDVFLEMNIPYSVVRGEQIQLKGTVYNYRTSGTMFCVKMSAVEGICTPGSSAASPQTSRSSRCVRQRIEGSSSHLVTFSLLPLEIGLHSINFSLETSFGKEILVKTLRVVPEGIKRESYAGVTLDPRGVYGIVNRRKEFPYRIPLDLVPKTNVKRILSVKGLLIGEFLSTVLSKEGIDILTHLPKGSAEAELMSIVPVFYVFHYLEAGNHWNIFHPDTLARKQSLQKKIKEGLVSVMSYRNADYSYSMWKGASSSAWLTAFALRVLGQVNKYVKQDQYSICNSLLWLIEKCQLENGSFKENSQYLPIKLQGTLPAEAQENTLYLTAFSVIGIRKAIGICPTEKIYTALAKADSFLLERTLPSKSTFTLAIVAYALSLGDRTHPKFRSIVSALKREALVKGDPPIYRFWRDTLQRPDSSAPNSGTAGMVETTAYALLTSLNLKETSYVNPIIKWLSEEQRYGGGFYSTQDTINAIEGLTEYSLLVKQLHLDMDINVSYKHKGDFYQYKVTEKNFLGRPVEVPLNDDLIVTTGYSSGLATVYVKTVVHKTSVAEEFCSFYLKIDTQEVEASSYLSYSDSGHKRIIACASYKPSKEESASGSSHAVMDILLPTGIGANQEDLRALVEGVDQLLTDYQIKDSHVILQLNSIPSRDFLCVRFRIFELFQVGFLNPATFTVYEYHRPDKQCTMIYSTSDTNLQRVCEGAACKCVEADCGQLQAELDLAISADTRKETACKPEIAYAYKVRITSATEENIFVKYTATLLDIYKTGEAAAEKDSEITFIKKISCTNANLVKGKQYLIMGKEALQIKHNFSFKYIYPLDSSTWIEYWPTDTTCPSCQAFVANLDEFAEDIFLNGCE

IC50 (C5 [2]; [5]) | Ki (C5 [2]; [6]) | IC50 (C5 [2]; [7]) | Ki (C5 [2]; [8]) | IC50 (C5 [2]; [9]) | Ki (C5 [2]; [10]) | competition with labeled probe / affinity for C5 (in words) (C5 [2]; C5 50 nM) | Compound | IC50 (C5 [1]) | IC50 (C5 [4]) | also measured
4230 nM | 874 nM | 4330 nM | 866 nM | 4120 nM | 882 nM | weak affinity | CSCC[C@H](N)C(=O)N[C@H]1CSCc2cccc(c2)CSC[C@@H](C(=O)N[C@@H](CC(=O)O)C(=O)N[C@H](C(=O)N[C@@H](Cc2ccc(O)cc2)C(=O)N[C@@H](Cc2c[nH]c3ccccc23)C(=O)N[C@@H](CCC(=O)O)C(N)=O)C(C)C)NC(=O)[C@H](Cc2ccccc2)NC(=O)[C@H](CCCNC(=N)N)NC(=O)[C@H](CCC(=O)O)NC(=O)[C@H](C(C)C)NC1=O [Compound R3043, [mXylyl(2,7)]M-C-V-E-R-F-C-D-V-Y-W-E-NE2] (H-MCVERFCDVYWE-NH2; linker 2-7 via mXylylene) | 934 nM | – | –
280 nM | 64.3 nM | 267 nM | 71.1 nM | 293 nM | 57.6 nM | relatively strong affinity | CCC[C@H](NC(=O)[C@@H]1CSCc2ccc(cc2)CSC[C@H](NC(=O)[C@H](CCC)NC(C)=O)C(=O)N[C@@H](c2ccccc2)C(=O)N[C@@H]([C@@H](C)O)C(=O)N[C@@H](Cc2c[nH]c3ncccc23)C(=O)N[C@@H](CCC(=O)O)C(=O)N[C@@H](Cc2ccc(O)cc2)C(=O)N(C)[C@@H](CO)C(=O)N[C@@H](Cc2c[nH]cn2)C(=O)N1)C(N)=O [Compound R3050, [pXylyl(2,10)]Ac-Nvl-C-Phg-T-azaTrp-E-Y-(N-Me)S-H-C-Nvl-NH2] (Ac-[Nva]C[Phg]T[Trp(7-aza)]EY[NMeS]HC[Nva]-NH2; linker 2-10 via pXylylene) | 42.9 nM | – | stability in human plasma (in words) ([3]; 37° C., up to 24 hrs): highly stable; half-life at 10 μM ([3]; pH 7.4, 37° C., 10 μM): > 24 h; Percent remaining at time (hrs): 0 hrs ([3]; pH 7.4, 37° C., 10 μM, 0 hrs): 100%; remaining at 2 h, 10 μM ([3]; plasma (collected in sodium heparin), pH 7.4, 37° C., 10 μM, 2 hrs, read-out: Percent remaining at time (hrs): 2 hrs): 109%; remaining at 4 h, 10 μM ([3]; plasma (collected in sodium heparin), pH 7.4, 37° C., 10 μM, 4 hrs, read-out: Percent remaining at time (hrs): 4 hrs): 100%; remaining at 12 h, 10 μM ([3]; plasma (collected in sodium heparin), pH 7.4, 37° C., 10 μM, 12 hrs, read-out: Percent remaining at time (hrs): 12 hrs): 88%; remaining at 24 h, 10 μM ([3]; plasma (collected in sodium heparin), pH 7.4, 37° C., 10 μM, 24 hrs, read-out: Percent remaining at time (hrs): 24 hrs): 98.1%
– | – | – | – | – | – | – | CC(=O)N[C@H]1CCCCNC(=O)C[C@@H](C(=O)N(C)[C@@H](CC(=O)O)C(=O)N[C@H](C(=O)N[C@@H](Cc2ccc(O)cc2)C(=O)N[C@@H](Cc2c[nH]c3ncccc23)C(=O)N[C@@H](CCC(=O)O)C(=O)N[C@@H](Cc2ccc(O)cc2)C(=O)N2CCC[C@H]2C(=O)N[C@H](C(=O)N[C@@H](CCCCN)C(N)=O)C2CCCCC2)C(C)(C)C)NC(=O)[C@H](Cc2ccccc2)NC(=O)[C@H](CCCNC(=N)N)NC(=O)[C@H](CCC(=O)O)NC(=O)[C@H](C(C)C)NC1=O [Compound R3192, [cyclo(1,6)]Ac-K-V-E-R-F-D-(N-Me)D-Tbg-Y-azaTrp-E-Y-P-Chg-K-NH2] | – | 1.5 nM | –
– | – | – | – | – | – | – | CCCCCCCCCCCCCCCC(=O)NCCCC[C@H](NC(=O)[C@@H](NC(=O)[C@@H]1CCCN1C(=O)[C@H](Cc1ccc(O)cc1)NC(=O)[C@H](CCC(=O)O)NC(=O)[C@H](Cc1c[nH]c2ncccc12)NC(=O)[C@H](Cc1ccc(O)cc1)NC(=O)[C@@H](NC(=O)[C@H](CC(=O)O)N(C)C(=O)[C@@H]1CC(=O)NCCCC[C@H](NC(C)=O)C(=O)N[C@@H](C(C)C)C(=O)N[C@@H](CCC(=O)O)C(=O)N[C@@H](CCCNC(=N)N)C(=O)N[C@@H](Cc2ccccc2)C(=O)N1)C(C)(C)C)C1CCCCC1)C(N)=O [Compound R3194, [cyclo(1,6)]Ac-K-V-E-R-F-D-(N-Me)D-Tbg-Y-azaTrp-E-Y-P-Chg-(Lys-C16)-NH2] | – | 15.5 nM | –
– | – | – | – | – | – | – | CCC[C@H](NC(=O)[C@@H](NC(=O)[C@@H]1CCCN1C(=O)[C@H](Cc1ccc(O)cc1)NC(=O)[C@H](CCC(=O)O)NC(=O)[C@H](Cc1c[nH]c2ncccc12)NC(=O)[C@H](Cc1ccc(O)cc1)NC(=O)[C@@H](NC(=O)[C@H](CC(=O)O)NC(=O)[C@@H]1CSCc2cccc(c2)CSC[C@H](NC(C)=O)C(=O)N[C@@H](C(C)C)C(=O)N[C@@H](CCC(=O)O)C(=O)N[C@@H](CCCNC(=N)N)C(=O)N[C@@H](Cc2ccccc2)C(=O)N1)C(C)(C)C)C1CCCCC1)C(=O)O [Compound R3201, [mXylyl(1,6)]Ac-C-V-E-R-F-C-D-Tbg-Y-azaTrp-E-Y-P-Chg-Nvl] | – | – | inhibitory activity in ex vivo hemolysis assays (in words) (rat C5): very little inhibitory activity; binding to rat C5 (in words) (rat C5; in vivo): do not bind
